Earlier results as cited in patent US10590413B2, “Chiral control” (WAVE LIFE SCIENCES LTD., priority 2012, dated 2020).
Like-named read-outs stand apart in the source and are kept apart here.

Experiments:
human PBMC = details: cited from earlier work
[1] = system: Murine IL-6 production and B cell activation; details: cited from earlier work; for IL-6 (pg/ml) CH12.LX: CH12.LX cells; for SI (stimulation index, [3H] uridine uptake, fold increase from unstimulated control): cells stimulated with 20 μM CpG O-ODN; for SI (stimulation index, [3H] uridine uptake, fold increase from unstimulated control) / SI (stimulation index, [3H] uridine uptake): mean ± SD of triplicates; for SI (stimulation index, [3H] uridine uptake): fold increase from unstimulated control, 20 μM CpG O-ODN; for IgM: unstimulated culture 547 ± 82 ng/ml; for IL-6 (pg/ml) SPLENIC B CELL: splenic B cells
NK Lytic Activity = details: cited from earlier work; for NK Lytic Activity (LU): human PBMC cultured with ODN 6 μg/ml for 24 hr, lysis of 51Cr-labeled K562 cells; for LU (NK lytic activity): human PBMC, ODN 6 μg/ml for 24 hr, lysis of Cr-labeled K562 cells, cells alone 0.01
[2] = ODN 12 μg/ml, 4 hr, 10% autologous serum, level above wells with no ODN, ELISA
[3] = ODN 12 μg/ml, 24 hr, 10% autologous serum, level above wells with no ODN, ELISA
[4] = unstimulated control ≤10 pg/ml, US 6,239,116 Table 2

For “1618 (DNA TCCATGACGTTCCTGATGCT; chemistry not given here) [Oligonucleotide 1618]”, the TNF-α (human PBMC; [2]) is listed as 60 pg/mL, the GM-CSF (human PBMC; [3]) is listed as 15.6 pg/mL and the IFN-γ (human PBMC; [3]) is listed as 15.6 pg/mL. The IL-6 (human PBMC; [3]) was 300 pg/mL, the IL-12 (human PBMC; [3]) was 62 pg/mL and the GM-CSF (human PBMC) was 15.6. For the same substance, the IFN-γ (human PBMC) was 15.6, the IL-6 (human PBMC) was 300 and the IL-12 (human PBMC) was 62. For the same substance, the TNF-α (human PBMC) was 60, the “IL-6 (pg/ml) CH12.LX” value [1] was 2109 ± 291 pg/mL and the “IL-6 (pg/ml) CH12.LX” value [1, 4] was 2109 ± 291 pg/mL. For the same substance, the “SI (stimulation index, [3H] uridine uptake, fold increase from unstimulated control)” value [1] was 12.9 ± 0.7, the “SI (stimulation index, [3H] uridine uptake)” value [1] was 12.9 ± 0.7 and the IgM ([1]; measured by ELISA) was 10425 ± 674 ng/mL. The “IL-6 (pg/ml) SPLENIC B CELL” value [1] was 2596 ± 166 pg/mL and the “IL-6 (pg/ml) SPLENIC B CELL” value [1, 4] was 2596 ± 166 pg/mL.

In the case of “1634 (DNA TCCATGTCGCTCCTGATGCT; chemistry not given here) [Oligonucleotide 1634]”, the TNF-α (human PBMC; [2]) is listed as 400 pg/mL, the GM-CSF (human PBMC; [3]) is listed as 85 pg/mL and the IFN-γ (human PBMC; [3]) is listed as 40 pg/mL. For the same substance, the IL-6 (human PBMC; [3]) was 300 pg/mL, the IL-12 (human PBMC; [3]) was 400 pg/mL and the GM-CSF (human PBMC) was 85. The IFN-γ (human PBMC) was 40, the IL-6 (human PBMC) was 300 and the IL-12 (human PBMC) was 200. The TNF-α (human PBMC) was 400, the “IL-6 (pg/ml) CH12.LX” value [1] was 1049 ± 223 pg/mL and the “IL-6 (pg/ml) CH12.LX” value [1, 4] was 1049 ± 223 pg/mL. For the same substance, the “SI (stimulation index, [3H] uridine uptake, fold increase from unstimulated control)” value [1] was 9.2 ± 0.9, the “SI (stimulation index, [3H] uridine uptake)” value [1] was 9.2 ± 0.9 and the IgM ([1]; measured by ELISA) was 6256 ± 261 ng/mL. The “IL-6 (pg/ml) SPLENIC B CELL” value [1] was 1671 ± 175 pg/mL and the “IL-6 (pg/ml) SPLENIC B CELL” value [1, 4] was 1671 ± 175 pg/mL.

For “1636 (DNA TCCATGTCGATCCTGATGCT; chemistry not given here) [Oligonucleotide 1636]”, the TNF-α (human PBMC; [2]) is listed as 250 pg/mL, the GM-CSF (human PBMC; [3]) is listed as 40 pg/mL and the IFN-γ (human PBMC; [3]) is listed as 35 pg/mL. For the same substance, the IL-6 (human PBMC; [3]) was 325 pg/mL, the IL-12 (human PBMC; [3]) was 250 pg/mL and the GM-CSF (human PBMC) was 40. The IFN-γ (human PBMC) was 35, the IL-6 (human PBMC) was 325 and the IL-12 (human PBMC) was 0. The TNF-α (human PBMC) was 250, the “IL-6 (pg/ml) CH12.LX” value [1] was 1181 ± 76 pg/mL and the “IL-6 (pg/ml) CH12.LX” value [1, 4] was 1181 ± 76 pg/mL. The “SI (stimulation index, [3H] uridine uptake, fold increase from unstimulated control)” value [1] was 5.4 ± 0.4, the “SI (stimulation index, [3H] uridine uptake)” value [1] was 5.4 ± 0.4 and the IgM ([1]; measured by ELISA) was 3983 ± 485 ng/mL. For the same substance, the “IL-6 (pg/ml) SPLENIC B CELL” value [1] was 947 ± 132 pg/mL and the “IL-6 (pg/ml) SPLENIC B CELL” value [1, 4] was 947 ± 132 pg/mL.

For “1637 (DNA TCCATGCCGGTCCTGATGCT; chemistry not given here) [Oligonucleotide 1637]”, the TNF-α (human PBMC; [2]) is given as 16 pg/mL, the GM-CSF (human PBMC; [3]) is given as 15.6 pg/mL and the IFN-γ (human PBMC; [3]) is given as 7.8 pg/mL. For the same substance, the IL-6 (human PBMC; [3]) was 550 pg/mL, the IL-12 (human PBMC; [3]) was 16 pg/mL and the GM-CSF (human PBMC) was 15.6. For the same substance, the IFN-γ (human PBMC) was 7.8, the IL-6 (human PBMC) was 550 and the IL-12 (human PBMC) was 35. For the same substance, the TNF-α (human PBMC) was 16, the “IL-6 (pg/ml) CH12.LX” value [1] was 136 ± 27 pg/mL and the “IL-6 (pg/ml) CH12.LX” value [1, 4] was 136 ± 27 pg/mL. The “SI (stimulation index, [3H] uridine uptake, fold increase from unstimulated control)” value [1] was 1.7 ± 0.2, the “SI (stimulation index, [3H] uridine uptake)” value [1] was 1.7 ± 0.2 and the IgM ([1]; measured by ELISA) was 770 ± 72 ng/mL. The “IL-6 (pg/ml) SPLENIC B CELL” value [1] was 46 ± 6 pg/mL and the “IL-6 (pg/ml) SPLENIC B CELL” value [1, 4] was 46 ± 6 pg/mL.

For “1639 (DNA TCCATAACGTTCCTGATGCT; chemistry not given here) [Oligonucleotide 1639]”, the TNF-α (human PBMC; [2]) is given as 220 pg/mL, the GM-CSF (human PBMC; [3]) is given as 40 pg/mL and the IFN-γ (human PBMC; [3]) is given as 15.6 pg/mL. For the same substance, the IL-6 (human PBMC; [3]) was 625 pg/mL, the IL-12 (human PBMC; [3]) was 220 pg/mL and the GM-CSF (human PBMC) was 40. The IFN-γ (human PBMC) was 15.6, the IL-6 (human PBMC) was 625 and the IL-12 (human PBMC) was 60. The TNF-α (human PBMC) was 220, the “IL-6 (pg/ml) CH12.LX” value [1] was 1827 ± 83 pg/mL and the “IL-6 (pg/ml) CH12.LX” value [1, 4] was 1827 ± 83 pg/mL. The “IgM” value ([1]; ELISA) was 9489 ± 103 ng/mL, the “SI (stimulation index, [3H] uridine uptake, fold increase from unstimulated control)” value [1] was 11.5 ± 0.4 and the “SI (stimulation index, [3H] uridine uptake)” value [1] was 11.5 ± 0.4. For the same substance, the IgM ([1]; measured by ELISA) was 9439 ± 103 ng/mL, the “IL-6 (pg/ml) SPLENIC B CELL” value [1] was 2012 ± 132 pg/mL and the “IL-6 (pg/ml) SPLENIC B CELL” value [1, 4] was 2012 ± 132 pg/mL.

For “1707 (DNA TCCATGACGTCCCTGATGCT; chemistry not given here) [Oligonucleotide 1707]”, the TNF-α (human PBMC; [2]) is given as 70 pg/mL, the GM-CSF (human PBMC; [3]) is given as 0 pg/mL and the IFN-γ (human PBMC; [3]) is given as 17 pg/mL. The IL-6 (human PBMC; [3]) was 300 pg/mL, the IL-12 (human PBMC; [3]) was 70 pg/mL and the GM-CSF (human PBMC) was 0. For the same substance, the IFN-γ (human PBMC) was 17, the IL-6 (human PBMC) was 300 and the IL-12 (human PBMC) was 0. For the same substance, the TNF-α (human PBMC) was 70, the “SI (stimulation index, [3H] uridine uptake, fold increase from unstimulated control)” value [1] was 4.0 ± 0.2 and the “SI (stimulation index, [3H] uridine uptake)” value [1] was 4.0 ± 0.2. For the same substance, the IgM ([1]; measured by ELISA) was 3534 ± 217 ng/mL, the “IL-6 (pg/ml) SPLENIC B CELL” value [1] was 1147 ± 175 pg/mL and the “IL-6 (pg/ml) SPLENIC B CELL” value [1, 4] was 1147 ± 175 pg/mL.

For “1708 (DNA TCCATCACGTGCCTGATGCT; chemistry not given here) [Oligonucleotide 1708]”, the TNF-α (human PBMC; [2]) is listed as 10 pg/mL, the IFN-γ (human PBMC; [3]) is listed as 17 pg/mL and the IL-6 (human PBMC; [3]) is listed as 270 pg/mL. For the same substance, the IL-12 (human PBMC; [3]) was 10 pg/mL, the GM-CSF (human PBMC) was 0 and the IFN-γ (human PBMC) was 17. For the same substance, the IL-6 (human PBMC) was 270, the IL-12 (human PBMC) was 0 and the TNF-α (human PBMC) was 10. The “SI (stimulation index, [3H] uridine uptake, fold increase from unstimulated control)” value [1] was 1.5 ± 0.1, the “SI (stimulation index, [3H] uridine uptake)” value [1] was 1.5 ± 0.1 and the IgM ([1]; measured by ELISA) was 466 ± 109 ng/mL. For the same substance, the “IL-6 (pg/ml) SPLENIC B CELL” value [1] was 59 ± 3 pg/mL and the “IL-6 (pg/ml) SPLENIC B CELL” value [1, 4] was 59 ± 3 pg/mL.

For “1754 (DNA ACCATGGACGATCTGTTTCCCCTC; chemistry not given here) [Oligonucleotide 1754]”, the “NK Lytic Activity (LU)” value (NK Lytic Activity) is listed as 0.02 LU and the “LU (NK lytic activity)” value (NK Lytic Activity) is listed as 0.02 LU.

In the case of “1761 (DNA TACCGCGTGCGACCCTCT; chemistry not given here) [Oligonucleotide 1761]”, the “NK Lytic Activity (LU)” value (NK Lytic Activity) is listed as 0.05 LU and the “LU (NK lytic activity)” value (NK Lytic Activity) is listed as 0.05 LU.

For “1776 (DNA ACCATGGACGAACTGTTTCCCCTC; chemistry not given here) [Oligonucleotide 1776]”, the “NK Lytic Activity (LU)” value (NK Lytic Activity) is listed as 0.03 LU and the “LU (NK lytic activity)” value (NK Lytic Activity) is listed as 0.03 LU.

For “1777 (DNA ACCATGGACGAGCTGTTTCCCCTC; chemistry not given here) [Oligonucleotide 1777]”, the “NK Lytic Activity (LU)” value (NK Lytic Activity) is listed as 0.05 LU and the “LU (NK lytic activity)” value (NK Lytic Activity) is listed as 0.05 LU.

In the case of “1778 (DNA ACCATGGACGACCTGTTTCCCCTC; chemistry not given here) [Oligonucleotide 1778]”, the “NK Lytic Activity (LU)” value (NK Lytic Activity) is given as 0.01 LU and the “LU (NK lytic activity)” value (NK Lytic Activity) is given as 0.01 LU.
